In PubChem BioAssay (NCI):
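Exposure lasted 48 hours, with cells grown in 96-well plates and compounds tested at five concentrations. GI50 is the concentration that inhibits growth by half. TGI marks complete inhibition of growth.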

Legend:
Assay in all cases: NCI-60 cell line screen, 48 h
786-0 renal = system: 786-0 renal
SN12C renal = system: SN12C renal
HL-60(TB) leukemia = system: HL-60(TB) leukemia
HCT-15 colon = system: HCT-15 colon
OVCAR-3 ovarian = system: OVCAR-3 ovarian
HOP-62 NSCLC = system: HOP-62 NSCLC
SW-620 colon = system: SW-620 colon
SNB-75 CNS = system: SNB-75 CNS
RPMI-8226 leukemia = system: RPMI-8226 leukemia
BT-549 breast = system: BT-549 breast

Structure (SMILES)	TGI (786-0 renal) [µM]	TGI (SN12C renal) [µM]	TGI (HL-60(TB) leukemia) [µM]	TGI (HCT-15 colon) [µM]	TGI (OVCAR-3 ovarian) [µM]	TGI (HOP-62 NSCLC) [µM]	TGI (SW-620 colon) [µM]	TGI (SNB-75 CNS) [µM]	TGI (RPMI-8226 leukemia) [µM]	TGI (BT-549 breast) [µM]	GI50 (RPMI-8226 leukemia) [µM]	GI50 (786-0 renal) [µM]	GI50 (SN12C renal) [µM]	GI50 (HL-60(TB) leukemia) [µM]	GI50 (HCT-15 colon) [µM]	GI50 (BT-549 breast) [µM]	GI50 (OVCAR-3 ovarian) [µM]	GI50 (HOP-62 NSCLC) [µM]	GI50 (SW-620 colon) [µM]	GI50 (SNB-75 CNS) [µM]
Cc1cc(N(CCC#N)CCC#N)ccc1N=Nc1ccccc1[N+](=O)[O-]	> 100	> 100	> 100	> 100	> 100	> 100	> 100	> 100	–	–	–	–	–	–	–	–	–	–	–	–
NC(=O)c1csc(C2O[C@@H](COP(=O)(O)OP(=O)(O)OC[C@H]3OC(n4cnc5c(N)ncnc54)[C@H](O)[C@@H]3O)[C@H](O)[C@@H]2O)n1 (stereo partly drawn)	> 100	> 100	> 100	> 100	> 100	> 100	> 100	> 100	> 100	–	–	–	–	–	–	–	–	–	–	–
CC(=O)CC(=O)CCCC(=O)Nc1ccc(Cl)cc1Cl	> 100	> 100	> 100	> 100	> 100	> 100	> 100	> 100	> 100	–	–	–	–	–	–	–	–	–	–	–
O=C1C2c3[nH]c4ccccc4c3C3CCSCC3C2C(=O)N1c1ccccc1 (stereo not drawn)	> 100	> 100	> 100	> 100	> 100	> 100	> 100	44.7	> 100	–	–	–	–	–	–	–	–	–	–	–
CC1=CCP(C(F)(F)F)P(C(F)(F)F)C1 (stereo not drawn)	> 100	> 100	> 100	> 100	> 100	> 100	> 100	> 100	> 100	–	–	–	–	–	–	–	–	–	–	–
CC(=O)C(C(=N)C#N)C(=O)Nc1ccccc1 (stereo not drawn)	> 100	> 100	–	> 100	> 100	> 100	> 100	> 100	> 100	> 100	–	–	–	–	–	–	–	–	–	–
O=C1C(c2ccc(Cl)cc2)=[N+]([O-])c2ccccc21	30.7	32.4	24	41.3	26.8	78.5	62.1	42.2	> 100	–	–	–	–	–	–	–	–	–	–	–
C[C@@H](Oc1cc(-c2cnn(C3CCNCC3)c2)cnc1N)c1c(Cl)ccc(F)c1Cl	8.94	> 10	1.9	> 10	> 10	> 10	> 10	–	8.64	> 10	1.91	2.72	1.8	0.398	2.4	5.24	3.26	2.57	0.435	–
c1ccc(Oc2c3ccccc3nc3ccccc23)cc1	10.7	16.8	5.79	12.3	13.2	12.3	17.5	14.2	24.6	–	4.75	3.08	5.27	0.541	3.06	–	3.41	3.53	1.64	3.49
